Source: patent publication US5773263A, “Production aflastatin A from streptomyces sp., a pharmaceutical composition and methods of use” (Morinaga & Co., Ltd., priority 1996, dated 1998)
Converted amounts (≈) assume the structure as drawn. “And” between values parts separate entries of the source, which are not always exact repeats. Equal values may be shown once.

Experiments:
[1] = tested on: Bacillus subtilis IAM 1145; test: Antimicrobial spectrum, agar dilution MIC; type: cell-based; conditions: medium A, 37 °C, 24 hrs
Experimental: (§1) Conditions for the measurements of the antimicrobial sepctra are as follows:
(§2) 80 mg of aflastatin A was dissolved in 4 ml of dimethyl sulfoxide (DMSO). This solution was diluted with DMSO to prepare a dilution series by two times as test solutions. The test solutions were filtrated with a filter and sterilized. 50 μl of each of them was added to 10 ml of a sterilized agar medium at 60° C. to prepare a dilution series of agar media. To each of the agar media, test strains were inoculated for antimicrobial activity. Media used for the tests are as follows:
(§3) A: Nutrient agar (manufactured by Nihon Suisan K.K.)

[2] = tested on: Escherichia coli IFO 14249; test: Antimicrobial spectrum, agar dilution MIC; type: cell-based; conditions: medium A, 37 °C, 24 hrs
Experimental: as §1, §2, §3

[3] = tested on: Psuedomonas aeruginosa IAM 1514; test: Antimicrobial spectrum, agar dilution MIC; type: cell-based; conditions: medium A, 37 °C, 24 hrs
Experimental: as §1, §2, §3

[4] = tested on: Staphylococcus aureus IFO 13276; test: Antimicrobial spectrum, agar dilution MIC; type: cell-based; conditions: medium A, 37 °C, 24 hrs
Experimental: as §1, §2, §3

[5] = tested on: Candida albicans IFO 1594; test: Antimicrobial spectrum, agar dilution MIC; type: cell-based; conditions: medium C, 30 °C, 48 hrs
Experimental: as §1, §2
(§4) C: Sabouraud agar (manufactured by Nihon Suisan K.K.)

[6] = tested on: Saccharomyces cerevisiae IFO 0250; test: Antimicrobial spectrum, agar dilution MIC; type: cell-based; conditions: medium C, 30 °C, 48 hrs
Experimental: as §1, §2, §4

[7] = tested on: Trichophyton mentagrophytes IFO 5809; test: Antimicrobial spectrum, agar dilution MIC; type: cell-based; conditions: medium C, 30 °C, 48 hrs
[8] = tested on: Fusarium graminearum ATCC 34909; type: cell-based
[9] = tested on: Aspergillus parasiticus NRRL 2999; test: Antimicrobial spectrum, agar dilution MIC; type: cell-based; conditions: medium B, 27 °C, 48 hrs
Experimental: as §1, §2
B: Potato dextrose agar (manufactured by Nihon Suisan K.K.)

[10] = tested on: Pyricularia oryzae IFO 30732; type: cell-based
Solubility = type: physicochemical
ddy series male mice = test: Toxicity, single administration to mice; type: in vivo
Experimental: Aflastatin A was suspended in a 0.25% carboxymethylcellulose solution and the suspension was administered to ddy series male mice. […] By single oral administration, no mice died in an administered amount of 1,000 mg/kg or less.

[11] = tested on: Aspergillus parasiticus NRRL 2999; type: cell-based
[12] = tested on: Aspergillus parasiticus NRRL 2999; set-up: key: -: no growth; +: growth delayed; ++: fine growth; conditions: in vivo
adenocarcinoma 755 = test: Antitumor activity, subcutaneously transplanted adenocarcinoma 755 in BDFI mice; type: in vivo, mouse; conditions: for Antitumor activity / Weight of tumor: four successive days, day 14; for Antitumor activity: control 100.0; for Weight of tumor: mean ± SD of six mice, control 1617.8 ± 179.07
Experimental: BDFI mice having a weight of from 21.0 to 24.3 g were divided into four groups each being 6 mice. A physiological saline suspension of adenocarcinoma 755 cells collected from subcultured 11th day mouse and adjusted, was transplanted subcutaneously at a right ventral portion of each mouse at a rate of 5×10^5 cells/0.5 ml/mouse.
The day of transplantation was regarded as the day 0. From the next day, intraperitoneal administration was carried out once a day for four successive days to each group at a rate of aflastatin A administration of 0.3 mg/kg/day, 1 mg/kg/day, or 3 mg/kg/day. The aflastatin A was suspended in a 0.25% carboxymethyl cellulose solution (manufactured by Nakarai Tesk) and administered at a dose of 10 ml/kg. The rest of the four groups was used as a control.
By the day 14, general conditions were observed every day, and the mice were clubbed to death at the day 14. Solid tumors were collected and their wet weights were measured. From the measured tumor weights, inhibitory ratios against the control group were calculated and antitumor activities were determined. The tumor weight is represented by an average of six mice±standard deviation.

Which results are given for `CCCCCCCCCC(O)C[C@]1(O)O[C@H](CC(O)C(O)C(O)C(O)C(O)CC(O)CC(O)CC(O)C(C)C(O)C(C)C(O)CC(O)C(C)C(O)C(C)C(O)C(C)C(O)C(O)CC(C)CC(C)/C=C(C)/C(O)=C2/C(=O)C(C)N(C)C2=O)[C@@H](O)[C@H](O)[C@@H]1O` (stereo partly drawn) [aflastatin A]?
MIC [1]: 0.39 µg/mL (≈ 0.31 µM); MIC [2]: > 100 µg/mL; MIC [3]: > 100 µg/mL; MIC [4]: 0.78 µg/mL (≈ 0.62 µM); MIC [5]: 0.39 µg/mL (≈ 0.31 µM); MIC [6]: < 0.19 µg/mL; MIC [7]: 0.39 µg/mL (≈ 0.31 µM); MIC [8]: > 100 µg/mL; MIC [9]: > 100 µg/mL; MIC [10]: > 0.19 µg/mL; Solubility (Solubility; aqueous butanol): slightly soluble; Solubility (Solubility; aqueous ethanol): slightly soluble; Solubility (Solubility; dimethyl sulfoxide): Soluble; Solubility (Solubility; glycerol): slightly soluble; Solubility (Solubility; methanol): slightly soluble; Solubility (Solubility; other organic solvents): practically insoluble; Solubility (Solubility; water): practically insoluble; LD50 (ddy series male mice; single intraperitoneal administration, suspended in 0.25% carboxymethylcellulose): 6.17 mg/kg; Mortality (ddy series male mice; single oral administration, 1,000 mg/kg or less): no mice died; Colony diameter [11]: 7.8 ± 0.2 cm and 6.5 ± 0.2 cm and 5.5 ± 0.3 cm; Growth of strains [12]: ++; Antitumor activity (adenocarcinoma 755; 0.3 mg/kg/day i.p.): 42.0%; Weight of tumor (adenocarcinoma 755; 0.3 mg/kg/day i.p.): 680.2 ± 176.63 mg; Antitumor activity (adenocarcinoma 755; 1 mg/kg/day i.p.): 24.3%; Weight of tumor (adenocarcinoma 755; 1 mg/kg/day i.p.): 392.8 ± 87.07 mg; Dose assessment (adenocarcinoma 755; 3 mg/kg/day i.p.): overdose; Mortality (printed in the column weight of tumor) (adenocarcinoma 755; 3 mg/kg/day i.p.): All mice died by the day 3
